This is an account of results in patent US9597299B2, “Method for treating gefitinib-resistant non-small-cell lung cancer” (Macau University of Science and Technology, priority 2014, dated 2017).

Common to all, as to type: cell-based
In assay [1] the test system is A549 (EGFR wild-type) NSCLC cells. Nature of the assay: cell viability assay, A549. Particulars: Homo sapiens. From the text: (§1) Table 1 summarizes the IC50 values of five different cell lines treated with TMS.
Assay [2] has as its system EGFR PY1173. Description: immunoblot analysis of EGFR PY1173, A549 cell lysate. As to conditions: A549 cells. The procedure: (§2) Moreover, the inhibition of PY1173 activation happens as early as in 1 hour after TMS treatment.
Background: A western blot detects proteins with antibodies after separation by electrophoresis.

The subject of assay [3] is H1975 cells. Description: cell morphology, flow cytometry and relative cell viability, TMS with/without JNK inhibitor, H1975. As to conditions: TMS alone, groups: control, FIG. 6.
In assay [4] the test system is H358 (EGFR wild-type) NSCLC cells. Description: cell viability assay, H358. As to conditions: Homo sapiens, NCI-H358.
From the text: as §1

Assay [5] has as its system EGFR PY1173. Nature of the assay: immunoblot analysis of EGFR PY1173, H1975 cell lysate. The procedure:
as §2

Assay [6] has as its system H820 (EGFR double mutation) gefitinib-resistant NSCLC cells. Description: cell viability assay, H820. Particulars: NCI-H820.
From the text: as §1

Assay [7] has as its system BEAS-2B (normal epithelial cells). Description: cell viability assay, BEAS-2B. Particulars: Homo sapiens.
From the text: as §1

Assay [8] has as its system H1975 (EGFR double mutation) gefitinib-resistant NSCLC cells. Description: cell viability assay, H1975.
From the text: as §1

The test system of assay [9] is H1975 cells. Nature of the assay: cell morphology and flow cytometry (apoptosis), H1975. As to conditions: gefitinib-resistant NSCLC cell lines (H1975), FIG. 2.
Assay [10] relates to mammalian target of rapamycin (mTOR). Description: proteomic analysis of apoptosis markers. As to conditions: proteomics, gefitinib-resistant NSCLC cells, FIG. 3. The source says:
FIG. 3 is a schematic diagram showing the proteomic analysis result of TMS on different markers involved in apoptosis of gefitinib-resistant non-small-cell lung cancer cells.

For assay [11], the system named is H1975 cells. Description: relative cell viability, TMS with/without compound c, H1975.

The IC50 is the concentration that gives 50% inhibition. Low values mean inhibition by little substance, high ones a need for much substance. Regarding `COc1ccc(/C=C\c2cc(OC)c(OC)c(OC)c2)cc1` [TMS, (Z)3,4,5,4′-tetramethoxystilbene], the IC50 in [1] was more than 0.4 µM; in assay [4] it was more than 0.4 µM; in assay [6], 0.136 ± 0.0359 µM; in assay [7], more than 0.4 µM; in [8] (Homo sapiens, NCI-H1975, H1975 (EGFR double mutation), cell viability), 0.0572 ± 0.0135 µM. Moreover, the “inhibitory effect on EGFR (PY1173)” value in assay [2] is reported as “not detected”. In addition, the “suppression of EGFR PY1173” value in assay [2] (10-time higher concentration of TMS) is “no suppression of EGFR PY1173 was observed”. For the same molecule, the “apoptosis induction / relative cell viability among four treatment groups” value was “most effective in inducing apoptosis” in assay [3] and “most effective in inducing apoptosis” in assay [11] (TMS alone (40 nM), groups: control, compound c, TMS, FIG. 4). Moreover, in assay [5] (H1975, fixed concentration of TMS), the “time to inhibition of PY1173 activation after TMS treatment” value is not above 1 h. For the same molecule, in assay [5] (TMS at 40, 60 and 80 nM, gefitinib-resistant NSCLC cells (H1975)), the “activation of EGFR PY1173” value is given as “inhibits the activation of EGFR PY1173”. In addition, in [8] (H1975 and H820 versus BEAS-2B, A549, H358), the “selectivity for gefitinib-resistant NSCLC cells over normal and EGFR wild-type cells” value is “selectivity on gefitinib-resistant NSCLC cells”. For the same molecule, the induction of apoptosis result in assay [9] is on record as “inducing apoptosis”. Besides, the “effect on mTOR” value in assay [10] is recorded as “significantly inhibited”.

On to `c1cc(-c2cnn3cc(-c4ccc(OCCN5CCCCC5)cc4)cnc23)ccn1` [compound c, reference compound], for which the “effect of compound c on the effect of TMS” value in assay [11] (H1975, FIG. 4) is given as “counteracts the effect of TMS”.
